The record followed here is patent US20190111040A1, “IN VIVO AMELIORATION OF ENDOGENOUS ANTI-TUMOR AUTOANTIBODIES TARGETING SURFACE TUMOR ANTIGENS VIA LOW-DOSE P4N” (THE JOHNS HOPKINS UNIVERSITY, priority 2016, published 2019).

Assay [1] in a line: In vivo effects of P4N on antibody production and B cell differentiation (EGFP immunization). Also noted: species or system BALB/c mice. The method, then:
In vivo effects of P4N on antibody production and B cell differentiation. Mice were immunized and boosted with 100 μg EGFP in 100 μl of PBS by intraperitoneal injection once every week and simultaneously treated with or without 5 mg/kg P4N once or three times per week. Blood samples were collected from the retro-orbital plexus of the mice every week. The titers of anti-EGFP antibodies in sera were measured by enzyme-linked immunosorbent assay (ELISA). Briefly, each well of a microtiter plate (Nunc, Wiesbaden, Germany) was coated with 100 ng of rEGFP in 100 μl of PBS. The sera were 6400× diluted by PBS and added to the antigen-coated wells, and their titers were measured as described above. The isotypes of anti-EGFP antibodies in sera were also measured as described previously.
The splenocytes of P4N-treated or untreated mice were harvested and probed with anti-CD19-FITC, anti-CD23-APC, anti-CD38-APC, anti-CD27-APC, anti-CD138-APC, anti-CD5-PE or anti-CD1d-Alexa 647 (BioLegend) antibodies and analyzed by flow cytometry (BD Biosciences). The definitions of the cell types were as described above, except for memory B cells (CD19+CD27+) and plasma cells (CD19+CD138+). The indices of different types of B cell proliferation were calculated as follows: (the number of splenocytes×the percentage of each B cell population in treated splenocytes)/(the number of splenocytes×the percentage of each B cell population in untreated splenocytes).

Assay [2] concerns THP-1 cells. As to the kind of experiment: Cytokine and chemokine production of P4N treated THP-1, Bio-Plex and ELISA. In kind it is cell-based, human. As to the method:
THP-1 cells were treated with 3 μM of P4N or the vehicle control (NC) for 24 h. Supernatants were collected and analyzed using the Bio-Plex assay for human cytokines. Shown are the concentrations of 27 human cytokines for each treatment from three independent experiments. The levels of IL-2, IL-4, IL-6, IL-7, IL-9, IL13, IL-15, Eotaxin, G-CSF, IFN-γ and PDGF-bb were undetectable.
FIG. 13 provides graphs showing P4N-induced pro-inflammatory cytokine production in THP-1 cells. THP-1 cells were treated with 3 μM P4N for different lengths of time, Cell supernatants were collected and TNF-α, IL-1β and IL-8 quantitated by ELISA. All results are the mean of three independent experiments (n=6).

Assay [3] has as its system mouse splenocytes. As to the kind of experiment: Effect of P4N on B cell lineage in mouse splenocytes in vitro. Type of assay: cell-based. As to the method: The effect of P4N on changes in B cell lineage in vitro. Single cell suspensions of mouse splenocytes were obtained by grinding the spleens from healthy mice. The suspended splenocytes were treated with or without 0.1 or 0.2 μM of P4N for 48 h, and the percentage of naïve B cells, activated B cells, B1 cells or Breg cells were measured after staining with the following fluorochrome conjugates using flow cytometry (BD Biosciences): anti-CD19-FITC, anti-CD-23-APC, anti-CD-38-APC, anti-CD5-PE or anti-CD1d-Alexa 647 (BioLegend, San Diego, Calif.). The cell types were defined as follows: naïve B cells (CD19+CD23+), activated B cells (CD19+CD38+), B1 cells (CD19+CD5+) and Breg cells (CD19+CD5+CD1d+). The indices of different types of B cell proliferation were calculated as follows: (the number of splenocytes×the percentage of each B cell population in treated splenocytes)/(the number of splenocytes×the percentage of each B cell population in untreated splenocytes).

Assay [4] deals with Raji or OKT3 cells. As to the kind of experiment: Cell proliferation assay with THP-1-conditioned media. Type of assay: cell-based. The following applies: conditioned medium from THP-1 cells treated with P4N, 48 h, MTT. The method, then: FIGS. 5A-5F depict the expression of Activin A/BAFF induced by P4N treatments. (A) P4N induced Activin A or BAFF expression in human PBMCs as determined by RT-PCR. S1-S5 display different individual blood samples collected from 5 different human donors; N, no treatment; P, P4N-treatment (3 μM). The change in Activin A and BAFF expression (mean of 5 patients) relative to the control (NC) is plotted as a histogram (B) The effect of increasing dosages of P4N for 12 h on mRNA and protein levels of Activin A or BAFF in THP-1 cells was analyzed by RT-PCR and ELISA. (C) The effect of 6 μM P4N on mRNA and protein levels of Activin A or BAFF in THP-1 cells was determined at a different time period. (D) The effect of different inhibitors on Activin A-induced BAFF expression was examined. The expression of BAFF mRNA in inhibitor-treated THP-1 cells was determined by RT-PCR, and (E) BAFF protein secretion was measured by ELISA. (F) The effect of THP-1 conditioned media on the proliferation of Raji cells and OKT3 hybridoma cells were determined. Media were harvested, in which THP-1 cells were pre-treated without inhibitor (2) or with SB431542 (3), A83-01 (4), SIS3 (5), SB203580 (6) or PD98059 (7) and then treated with P4N for 12 h. The results are expressed as % viable cells relative to the control (NC, media from untreated THP-1 cells). All values are the means of triplicate samples±SEM. The significant differences in the results of inhibitor and P4N-treated groups compared with the untreated group are indicated by ***P<0.001.
Cell proliferation assay. Raji or OKT3 cells (1×10^4/well) were seeded and treated with THP-1-conditioned media. After 48 h the number of viable cells was determined by MTT assay. The indices of cell proliferation were calculated as previously described.

For assay [5], the system named is CT26 tumors. As to the kind of experiment: Immunohistochemical staining of tumors after P4N. In kind it is in vivo, mice. An excerpt: Immunohistochemical staining. Tumors isolated from P4N and vehicle-treated mice were embedded in paraffin and thin sections were made and processed for immunohistochemical staining. The sections were probed with rat monoclonal anti-F4/80 (1:50 dilution; GeneTex, Irvine, Calif.) and anti-CD20 (1:200 dilution; Santa Cruz Biotechnology, Dallas, Tex.), hamster monoclonal anti-CD11c (1:25 dilution; GeneTex), rabbit monoclonal anti-CD3 (1:50 dilution; GeneTex), rabbit polyclonal anti-TNF-α and anti-IL-8 antibody (1:50 dilution; Assay BioTech. Sunnyvale, Calif.) at 4° C. overnight, and the detection antibodies were recognized using a horseradish peroxidase (HRP)-conjugated anti-rat, anti-hamster, or anti-rabbit IgG antibody (1/1,500 dilution; Santa Cruz Biotechnology). The immune complexes in the sections were visualized using the LSAB2 system (DAKO, Carpinteria, Calif.). The sections were counterstained with hematoxylin, mounted, observed under a light microscope at a magnification of 400×, and photographed.

The mark [6] stands for this setting: THP-1 monocytes, 3 μM P4N, ELISA.

Structures can show the parent of a compound that is named as a salt.

As to `C[C@H](Cc1ccc(OCCN2CCCCC2)c(OCCN2CCCCC2)c1)[C@@H](C)Cc1ccc(OCCN2CCCCC2)c(OCCN2CCCCC2)c1` [P4N, meso-2,3-dimethyl-1,4-bis(3,4-[2-(piperidino)ethoxyphenyl])butane tetrakishydrochloride salt], the “total specific anti-EGFP Ig production” value in assay [1] (5 mg/kg P4N once or three times a week with EGFP) is given as “dramatically enhanced”. In assay [1] (compared to EGFP immunization), the “B cell differentiation to plasma cells” value is given as “greatly stimulated”. The “IgG1, IgG2b and IgA production” value in assay [1] (immunization with P4N) is on record as “significantly increased”. In addition, in assay [2] (THP-1, 3 μM P4N, 24 h), the “levels of IL-2, IL-4, IL-6, IL-7, IL-9, IL13, IL-15, Eotaxin, G-CSF, IFN-γ and PDGF-bb” value is reported as “undetectable”. Further, the “expression of pro-inflammatory cytokines and chemokines” value in assay [2] (THP-1, 3 μM P4N, 24 h, Bio-Plex) is recorded as “increased the expression”. For the same molecule, in assay [2] (setting [6]), the “time of stimulated IL-8 release” value is at least 8 h; the “time to induction of TNF-α and IL-1β expression” value is recorded as at most 4 h. The “total B cell proliferation in mouse splenocytes” value in assay [3] (48 h) is “increased total B cell proliferation”. The “number of activated B cells” value in assay [3] (absence of antigen stimulation) is on record as “had no effect”. In addition, in assay [4], the “proliferation of Raji or OKT3 cells” value is “increased the proliferation”. For the same molecule, the “expression levels of TNF-α and IL-8 in tumors” value in assay [5] (5 mg/kg intratumoral, day 7, both strains of mice) is recorded as “enhanced the expression levels”. Moreover, the “infiltration of immune cells (macrophages, DC, T or B cells) into the tumor area” value in assay [5] (single intratumoral injection 5 mg/kg, day 7, IHC) is “led to the infiltration of immune cells”.
